Consider six molecules from ChEMBL document CHEMBL1148120, “New cytotoxic 6,7-cis and 6,7-trans configured guaianolides from Warionia saharae” (J Nat Prod, 2002).

This assay concerns KB. Briefly: Cytotoxicity against human KB cells. It is filed as functional, cell-based.

SMILES strings stand for the structures. ≈ marks a conversion by molar mass, not a printed value.

`C=C1C(=O)O[C@H]2[C@H]1CC=C(C)[C@]1(O)C[C@H]3O[C@@]3(C)[C@H]21` came in with an IC50 of 1.7 µg/mL (≈ 6.48 µM). The result for `C=C1C(=O)O[C@H]2[C@H]1CCC(=C)[C@]1(O)C[C@H]3O[C@@]3(C)[C@H]21` reads 2 µg/mL (≈ 7.62 µM). Molecule `C=C1C(=O)O[C@@H]2[C@H]1CCC(C)=C1[C@H]3O[C@](C)([C@H]3OC(=O)C(C)CC)[C@@H]12` (stereo partly drawn) [3BETA-O-(2-METHYLBUTYRYL)MOROCCOLIDE A] came in with an IC50 of 1 µg/mL (≈ 2.89 µM). The same measure for `C=C1C(=O)O[C@@H]2[C@H]1CCC(C)=C1[C@H]3O[C@](C)([C@H]3O)[C@@H]12` [MOROCCOLIDE A]: 4.5 µg/mL (≈ 17.2 µM); for `C=C1C(=O)O[C@H]2[C@@H]3[C@@](O)(C(C)=CC[C@@H]12)[C@@H]1C[C@@]3(C)O1` [SAHARANOLIDE A]: 3.3 µg/mL (≈ 12.6 µM); for `C=C1C(=O)O[C@H]2[C@@H]3[C@@](O)(C(=C)CC[C@@H]12)[C@@H]1C[C@@]3(C)O1` [SAHARANOLIDE B]: 5.5 µg/mL (≈ 21 µM).
